The record followed here is publication PMC9259562 (Scientific Reports, 2022).

Square brackets hold non-standard residues; d marks the D form. Peptide text beside a SMILES is read from it. βAla = NCCC(=O)O

For assay [1], the target named is Stx2a A-subunit (Escherichia phage 933W, UniProt P09385). Nature of the assay: biochemical. Format: binding, Escherichia coli.
In assay [2] the test system is Stx2a cytotoxicity in Vero cells. The note with it: 72 h.

Chain of Stx2a A-subunit (P09385 23-319 limits assumed): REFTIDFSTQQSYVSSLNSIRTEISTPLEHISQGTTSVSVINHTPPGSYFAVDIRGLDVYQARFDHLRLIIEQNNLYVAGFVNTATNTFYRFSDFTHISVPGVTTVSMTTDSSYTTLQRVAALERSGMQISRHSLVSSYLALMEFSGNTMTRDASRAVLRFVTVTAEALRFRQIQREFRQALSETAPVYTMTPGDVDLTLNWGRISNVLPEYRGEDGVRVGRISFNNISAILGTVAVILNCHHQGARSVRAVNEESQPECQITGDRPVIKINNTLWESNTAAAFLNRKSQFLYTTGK

On to `C[C@H](N)C(=O)N[C@@H](CCCNC(=N)N)C(=O)N[C@@H](CCCNC(=N)N)C(=O)N[C@@H](CCCNC(=N)N)C(=O)N[C@@H](CCCNC(=N)N)C(=O)N[C@@H](C)C(N)=O` [AR4A-mono] (H-ARRRRA-NH2), for which the IC50 – broadly, the concentration needed to halve the response being measured – amounted to 2.27 µM in assay [1] and 51.6 ± 2.2 µM in assay [2].

In assay [2], `CSCC[C@H](NC(=O)[C@H](C)NC(=O)[C@@H](N)CCSC)C(=O)N[C@@H](CCSC)C(=O)NCCC(=O)N[C@@H](CCCNC(=N)N)C(=O)N[C@@H](CCCNC(=N)N)C(=O)N[C@@H](CCCNC(=N)N)C(=O)N[C@@H](CCCNC(=N)N)C(=O)N[C@@H](C)C(N)=O` [MMβA-mono, reference compound] (H-MAMM[βAla]RRRRA-NH2) had an IC50 of 21 ± 4 µM.

For `C[C@H](NC(=O)[C@H](CCCNC(=N)N)NC(=O)[C@@H](N)CCCNC(=N)N)C(N)=O` [R2A-mono] (H-Arg-Arg-Ala-NH2), the IC50 in assay [1] turned out to be 132 µM; in assay [2], 66 ± 17 µM.

Regarding `N=C(N)NCCC[C@H](NC(=O)[C@H](CCCNC(=N)N)NC(=O)[C@@H](N)CCCNC(=N)N)C(N)=O` [R3-mono] (H-Arg-Arg-Arg-NH2), the 50% inhibitory concentration (IC50) was 3.68 µM in assay [1] and 78.7 ± 4.7 µM in assay [2].

Regarding `C[C@H](NC(=O)[C@H](CCCNC(=N)N)NC(=O)[C@H](CCCNC(=N)N)NC(=O)[C@@H](N)CCCNC(=N)N)C(N)=O` [R3A-mono] (H-RRRA-NH2), the IC50 in assay [1] worked out at 89.6 µM; in assay [2] it was 52.1 ± 3.5 µM.

In the case of `N=C(N)NCCC[C@H](NC(=O)[C@H](CCCNC(=N)N)NC(=O)[C@H](CCCNC(=N)N)NC(=O)[C@@H](N)CCCNC(=N)N)C(N)=O` [R4-mono] (H-RRRR-NH2), the IC50 in assay [1] was determined as 0.387 µM; in assay [2], 55.4 ± 8.9 µM.

`C[C@H](NC(=O)[C@H](CCCNC(=N)N)NC(=O)[C@H](CCCNC(=N)N)NC(=O)[C@H](CCCNC(=N)N)NC(=O)[C@@H](N)CCCNC(=N)N)C(N)=O` [R4A-mono] (H-RRRRA-NH2) registered an IC50 in assay [2] of 56.8 ± 2.8 µM.
